We go through 1 molecule from paper PMC12292862 (Biomedicines, 2025).

One experiment relates to COX-2. The experiment can be described thus: In vitro colorimetric COX (ovine) inhibitor-screening assay, COX-2. The experiment is classed as biochemical. As to conditions: ovine COX-2, tested at 50, 100 and 150 µg/mL. As to the method:
The test compounds’ ability to suppress COX-1 and COX-2 was evaluated using a colorimetric COX (ovine) inhibitor-screening method (Cayman Chemical, Item Number 760111). In brief, 150 μL of assay buffer, 10 μL of heme, 10 μL of enzyme (COX-1 or COX-2), and 10 μL of compound (1 mg/mL) make up the reaction mixture. In a final volume of […], the test compounds were evaluated at doses of 50, 100, and 150 μg/mL. The cyclooxygenase peroxidase component is used in the experiment. By monitoring the appearance of oxidized N, N, […] (TMPD) at 590 nm, the peroxidase activity is measured […]. […] The following formula was used to determine the % COX inhibition: The COX inhibition activity percentage is equal to (1 − T/C ×100), where T is the inhibitor well’s absorbance and C is the starting activity’s absorbance at 100% without the inhibitor well.

Experiment [1] has as its system carrageenan-induced rat paw edema. The experiment can be described thus: Carrageenan-induced paw edema. The experiment is classed as in vivo. The note with it: compounds 200 mg/kg i.p., indomethacin 10 mg/kg, 4 h after carrageenan. An excerpt:
Rats’ carrageenan-induced paw edema model was used to assess the novel synthesized drugs’ anti-inflammatory properties. A total of 180–190 g of male Wistar rats were used for the experiments. In the animal house at Sohag University in Sohag, Egypt, every animal was kept in careful laboratory conditions. After being weighed and divided into six groups at random, the animals are housed for a week to reduce stress and allow them to get used to the laboratory environment. The chemicals that were synthesized were administered intraperitoneally (i.p.) to rats at a dosage of 200 mg/kg. The control group received only vehicles. […] The rats were given a 0.2 mL sub-plantar injection of a 1% (w/v) suspension of carrageenan (made in PBS) in their right hind paw thirty minutes following the injection of synthesized compounds [33]. […] The % inhibition of paw edema was calculated by the following formula [34]:%Inhibition = ((Mean edema of control group − Mean edema of test compound)/(Mean edema of control group)) × 100.
A general note: Carrageenan injected into the paw causes an acute inflammation.

The test system of the next experiment is CRP. The experiment can be described thus: Serum CRP (ELISA) in carrageenan-injected rats. The experiment is classed as in vivo, rat. The note with it: compounds 200 mg/kg i.p., indomethacin 10 mg/kg, mean ± SD. As to the method: (§1) The selective pro-inflammatory cytokines were measured quantitatively using rat-specific Enzyme-Linked Immunosorbent Assay (ELISA) kits from Thermo Scientific™ (Waltham, MA, USA) with CAT. No. ERCRP for CRP; from Elabscience with Cat. No. E-EL-R2856 for TNF-α and with Cat. No. E-EL-R0011 for IL-1α; from CUSABIO, Houston, TX, USA, with Cat. No. CSB-E04640r for IL-6; and from My BioSource Co, USA, with Cat. No. MBS825017 for IL-1β, with Cat. No. MBS753621 for rat cyclooxygenase 1, and with Cat. No. MBS266603 for rat cyclooxygenase 2. Meanwhile, an ovine COX inhibitor-screening in vitro assay (item number 760111) was obtained from Cayman Chemical (Ann Arbor, MI, USA). We purchased malondialdehyde (MDA), glutathione (GSH), and superoxide dismutase (SOD) detection kits from Nanjing Jiancheng Bio-Technology Co. Ltd. (Nanjing, China).
(§2) At the end of the experiments, the rats were subjected to anesthesia with chloroform and then sacrificed. Blood was obtained via heart puncture for biochemical analysis. Following the animals’ sacrifice, the paws were taken out, decalcified, and stored in a 10% formalin solution. To prepare the tissue samples, they were sliced into thicknesses of 5 µm. Hematoxylin and eosin dyes were used to create the histology slides, which were then examined using a photomicroscope (Meiji Techno®, Iruma, Japan) for pathological alterations. The presence of inflammation was documented. Protease/phosphatase inhibitor cocktail in cold phosphate-buffered saline (1:4) (pH 7, 0.01 mol/L) (Cat. No. PPC1010, Sigma-Aldrich) was used to homogenize each rat’s paw piece in a glass homogenizer. After filtering and centrifuging the resultant homogenate for five minutes at 5000× g, oxidative stress biomarkers like GSH, SOD, and MDA were measured. The trials were repeated three times.
For orientation: An ELISA detects its analyte on a solid surface through an enzyme-linked reagent.

Another experiment has as its system IL-1α. The experiment can be described thus: Serum IL-1α (ELISA) in carrageenan-injected rats. The experiment is classed as in vivo, rat. As to conditions: compounds 200 mg/kg i.p., indomethacin 10 mg/kg, mean ± SD. As for the experimental part:
as §1, §2

The subject of another experiment is IL-1β. The experiment can be described thus: Serum IL-1β (ELISA) in carrageenan-injected rats. The experiment is classed as in vivo, rat. As to conditions: compounds 200 mg/kg i.p., indomethacin 10 mg/kg, mean ± SD. As for the experimental part: as §1, §2
The next experiment relates to IL-6. The experiment can be described thus: Serum IL-6 (ELISA) in carrageenan-injected rats. Type of experiment: in vivo, rat. As to conditions: compounds 200 mg/kg i.p., indomethacin 10 mg/kg, mean ± SD. As for the experimental part: as §1, §2
For a further experiment, the system named is TNF-α. Description: Serum TNF-α (ELISA) in carrageenan-injected rats. The experiment is classed as in vivo, rat. The note with it: compounds 200 mg/kg i.p., indomethacin 10 mg/kg, mean ± SD. As for the experimental part:
as §1, §2

For another experiment, the system named is rat cyclooxygenase 1. The experiment can be described thus: COX-1 level in carrageenan-injected paw (ELISA). The experiment is classed as in vivo. The note with it: compounds 200 mg/kg i.p., indomethacin 10 mg/kg, mean ± SD. As for the experimental part: as §1, §2
The subject of another experiment is rat cyclooxygenase 2. The experiment can be described thus: COX-2 level in carrageenan-injected paw (ELISA). The experiment is classed as in vivo. The note with it: compounds 200 mg/kg i.p., indomethacin 10 mg/kg, mean ± SD. As to the method: as §1, with “Meanwhile, an ovine COX inhibitor-screening in vitro assay (item number 760111) was obtained from Cayman Chemical (Ann Arbor, MI, USA).” left out
as §2

The subject of experiment [2] is rat paw tissue. Description: Histopathological examination of paw tissue (HE). As to conditions: carrageenan-injected paw; compounds 200 mg/kg i.p., indomethacin 10 mg/kg. Type of experiment: in vivo.
From the text: as §2

Experiment [3] has as its system rat paw tissue dermal collagen. The experiment can be described thus: Sirius Red staining of dermal collagen in paw tissue. The experiment is classed as in vivo. As to conditions: carrageenan-injected paw; compounds 200 mg/kg i.p., indomethacin 10 mg/kg.
Experiment [4] has as its system rat paw tissue. The experiment can be described thus: Histomorphometry lesion scores of paw tissue sections. The experiment is classed as in vivo. The note with it: vs carrageenan group.

The structures appear in SMILES notation. “Also recorded” adds a separate entry of the source. Marks after values point to notes of the source that are not given here.

For `COc1ccc2c(c1)c(CC(=O)O)c(C)n2C(=O)c1ccc(Cl)cc1` [indomethacin, reference compound], the “COX-2 inhibition % (mean activity)” value with COX-2 worked out at 97%. The “inhibition of paw edema after 4 h” value in experiment [1] is given as 57.66%. Also, the CRP in the experiment on CRP is 6.23 ± 0.22 ^b ng/mL. In addition, in the experiment with IL-1α, the IL-1α was 79.28 ± 0.55 ^b pg/mL. For the same molecule, the IL-1β with IL-1β was 92.86 ± 0.47 ^b pg/mL. Also, the IL-6 with IL-6 is 18.49 ± 0.27 ^b pg/mL. In addition, the TNF-α in the experiment on TNF-α is recorded as 11.30 ± 0.30 ^b pg/mL. The molecule also returned a COX-1 level with rat cyclooxygenase 1 of 6.31 ± 0.08 ng/mL. In the experiment on rat cyclooxygenase 2, this molecule returned a COX-2 level of 5.11 ± 0.13 ng/mL. The “histopathological findings of paw tissue (HE)” value with rat paw tissue [2] is on record as “marked edema”. Moreover, the “dermal collagen content and distribution (Sirius Red)” value in experiment [3] is “marked dispersed collagenous fibers; also recorded: markedly dispersed and less organized”. In the experiment on rat paw tissue [4] (Figure 11A), the inflammation scores entry is reported as “significantly reduced inflammation scores”. The vascular alteration scores result in the experiment with rat paw tissue [4] (Figure 11C) was “significantly mitigated vascular alterations”.
